# According to PMC9530166, “Allosteric regulation of glycogen breakdown by the second messenger cyclic di-GMP” (Nature Communications, 2022):
# Experiments:
# His6-GlgX (Vnz29170) = test: nanoDSF label-free thermal shift assay, wild-type GlgX; type: binding, Streptomyces venezuelae; conditions: 10 µM GlgX, 1 mM ligand; without ligand 51.5 °C
# Description: Fig. 1 GlgX binds c-di-GMP. a Quantification of c-di-GMP in S. venezuelae cell extracts using LC-MS/MS. Cells were harvested during late vegetative growth (8–10 h), transition to sporulation (12–16 h), and sporulation (18–20 h). Data are presented as the mean of biological replicates ±SD (n = 3). […] Source data are provided in the Source data file. c [^32P]-c-di-GMP binds to GlgX in DRaCALA assay indicated by dark spots in the center of the nitrocellulose membrane. For competition, excess (100 µM) of unlabeled c-di-GMP, c-di-AMP, or GTP was added to the reaction containing [^32P]-c-di-GMP and GlgX.
# To determine if the interaction between Vnz29170 (herein called GlgX) and c-di-GMP is direct, we purified an N-terminally His6-tagged GlgX protein and performed nano differential scanning fluorimetry (nanoDSF) thermal shift assays. […]
# For label-free thermal shift assay experiments, 10 μM purified protein in 25 mM Tris pH 8, 150 mM NaCl, 2.5% (v/v) glycerol, and 5 mM MgCl2 was incubated without or with (1 mM) of nonlabeled c-di-GMP or c-di-AMP, respectively, at rt for 10 min. Reactions were subsequently analyzed in a Tycho NT.6 (NanoTemper Technologies) device with a 30 K/min thermal ramp and the internal fluorescence at 330 and 350 nm was recorded. […]
# His6-GlgXD342A+E378A = test: BCA reducing-end enzyme assay, GlgXD342A+E378A; type: biochemical, Streptomyces venezuelae; conditions: 50 µM c-di-GMP, 0.05% glycogen from rabbit, 1 µM enzyme
# Description: Fig. 2 c-di-GMP stimulates glycogen breakdown activity of GlgX in vitro. a Bicinchoninic acid (BCA) in vitro enzyme assay. The purple copper bicinchoninate complex indicating GlgX-mediated generation of reducing ends in glycogen was quantified by photometric measurements at 562 nm. A562 values were converted into reducing ends [µM glucose equivalents] based on D-glucose as a standard. Reactions contained 0.05% (w/v) glycogen from rabbit, 1 µM GlgX and increasing concentrations of c-di-GMP (0–100 µM). Source data are provided as a Source data file. b BCA assay containing 0.05% of either glycogen from rabbit, pullulan, amylopectin from maize or amylose from potato as substrates. Where appropriate, 1 µM GlgX or 50 µM c-di-GMP were added to the reaction samples. Source data are provided as a Source data file. c BCA assay as in a with or without c-di-GMP (50 µM), 0.05% glycogen from rabbit (S) and 1 µM Vnz25270, GlgX, the active site mutants GlgXD342A, GlgXE378A, GlgXD342A+E378A, or the c-di-GMP-binding mutant variant GlgXDETR49-52 as indicated. […]
# Hydrolysis of carbohydrates was assessed in vitro by measuring the accumulation of reducing sugar ends using the BCA assay[42] and D-glucose as a standard for calibration (Supplementary Fig. 11). […] 125 μl sample aliquots were transferred in duplicates to a 96 well plate and the absorbance at 562 nm was measured using a plate reader.
smiles,measurement,setting,value
"Nc1nc2c(ncn2[C@@H]2O[C@@H]3CO[P@](=O)(O)O[C@H]4[C@@H](O)[C@H](n5cnc6c(=O)[nH]c(N)nc65)O[C@@H]4CO[P@](=O)(O)O[C@H]3[C@H]2O)c(=O)[nH]1 [c-di-GMP, bis-(3′−5′)-cyclic diguanosine monophosphate]",melting point of His6-GlgX in the presence of ligand,His6-GlgX (Vnz29170),55.8 °C
same,stimulation of enzyme activity by c-di-GMP,His6-GlgXD342A+E378A,could not be stimulated
